From a compilation of properties of binary mixtures (doi:10.1016/j.jtice.2008.09.006)

Assay: xn = mol fraction of the nth substance listed
Details: 101 kPa

Compound: CCCC[n+]1ccn(C)c1.F[P-](F)(F)(F)(F)F + O
- electrical conductivity (293.2 K, x2 = 0.05): 0.181 S/m
- electrical conductivity (293.2 K, x2 = 0.15): 0.235 S/m
- electrical conductivity (293.2 K, x2 = 0.2): 0.29 S/m
- electrical conductivity (298.2 K, x2 = 0.1): 0.268 S/m
- electrical conductivity (298.2 K, x2 = 0.2): 0.364 S/m
- electrical conductivity (303.2 K, x2 = 0.05): 0.291 S/m
- electrical conductivity (303.2 K, x2 = 0.1): 0.331 S/m
- electrical conductivity (303.2 K, x2 = 0.15): 0.382 S/m
- electrical conductivity (303.2 K, x2 = 0.2): 0.448 S/m
- electrical conductivity (308.2 K, x2 = 0.05): 0.351 S/m
- electrical conductivity (308.2 K, x2 = 0.15): 0.469 S/m
- electrical conductivity (313.2 K, x2 = 0.05): 0.423 S/m
- electrical conductivity (313.2 K, x2 = 0.1): 0.488 S/m
- electrical conductivity (313.2 K, x2 = 0.2): 0.652 S/m
- electrical conductivity (318.2 K, x2 = 0.1): 0.563 S/m
- electrical conductivity (318.2 K, x2 = 0.15): 0.675 S/m
- electrical conductivity (323.2 K, x2 = 0.05): 0.592 S/m
- electrical conductivity (323.2 K, x2 = 0.15): 0.792 S/m
- electrical conductivity (323.2 K, x2 = 0.2): 0.911 S/m
- electrical conductivity (333.2 K, x2 = 0.05): 0.701 S/m
- electrical conductivity (333.2 K, x2 = 0.1): 0.797 S/m
- electrical conductivity (333.2 K, x2 = 0.15): 0.923 S/m
- electrical conductivity (343.2 K, x2 = 0.05): 0.833 S/m
- electrical conductivity (343.2 K, x2 = 0.1): 0.928 S/m
- electrical conductivity (343.2 K, x2 = 0.2): 1.23 S/m
- electrical conductivity (353.2 K, x2 = 0.05): 1.06 S/m
- electrical conductivity (353.2 K, x2 = 0.1): 1.22 S/m
